This note sets out measurements from patent US4048299A, “Anticaries confectionaries and oral health products” (William Wrigley, Jr. Co., priority 1970, dated 1977).

Assay [1] deals with Lactobacillus casei and Streptococcus sp. FA-1. The assay is described as follows: Acid-production inhibition by broth-tube assay, 0.1 percent of compound. Type of assay: cell-based. Conditions: for inhibition at 0.1 %: read-out: Activity, Acid-Production Inhibition%. As for the experimental part: ^(a) Activity was measured by broth-tube assay to determine percent
(§1) acid-production inhibition obtained by Lactobacillus casei and
Streptococcus sp. FA-1 in the presence of 0.1 percent of compound.
^(a) Activity was measured by broth-tube assay to determine percent o
as §1
Streptococcus sp. FA-1 in the presence of 0.1% of compound. Symbols

The test system of assay [2] is Streptococcus sp. GS-5. The assay is described as follows: Acid production inhibition, broth-tube technique. The class given is cell-based. Particulars: Table XI, emulsion with 4 parts Tween 20. The protocol:
(a)2,4-Hexadienal was prepared as an emulsion with 4 parts of Tween 20.

The subject of assay [3] is oral microorganisms. The assay is described as follows: Acid production inhibition in vitro (summary). Particulars: in words, summary of tables. Type of assay: cell-based. As for the experimental part:
(§2) Other in vitro evaluations utilized a broth tube analysis of representative anticaries aldehydes incorporated in the vehicles of this invention against cultures of acid producing microorganisms normally present in the mouth. Standard laboratory procedures were utilized throughout to evaluate the acid production inhibition and growth inhibition over the incubation time of up to 24 hours.

The test system of assay [4] is oral microorganisms. As to the kind of experiment: Growth inhibition in vitro (summary). The class given is cell-based. Particulars: in words, summary of tables. The protocol:
as §2

For assay [5], the system named is Streptococcus sp. FA-1. The assay is described as follows: Acid production inhibition, broth-tube technique. Conditions: Table XI, emulsion with 4 parts Tween 20.
Text: (§4) The data was compiled through well-known broth tube analysis techniques.
(a)Measured by broth-tube technique.
The test system of assay [6] is Lactobacillus casei. The assay is described as follows: Acid production inhibition, broth-tube technique. Conditions: Table XI, emulsion with 4 parts Tween 20.
Text: as §4
(a)Measured by broth-tube technique.
The test system of assay [7] is Streptococcus spp. FA-1. The assay is described as follows: Growth inhibition of oral microorganisms in vitro, pour plates. The class given is cell-based. Particulars: Table IX; for Bacterial Population, Experimental: control 2 × 10^8 to 5 × 10^8; for Inhibition (growth): pour plates incubated 48 - 72 hours. The protocol: (§3) (a)Determined on freshly grown pure cultures. Pour plates were incubated

The test system of assay [8] is L. casei. The description is as above. The class given is cell-based, Lactobacillus casei. Conditions: Table IX; for Bacterial Population, Experimental: control 8 × 10^8 to 1 × 10^9; for Inhibition (growth): pour plates incubated 48 - 72 hours. As for the experimental part:
as §3

[9] abbreviates: Table X, 0.1 percent of compound.

SMILES strings stand for the structures. Read-outs that look alike come from different tables or passages of the source.

Consider `CC=CC=CC=O` [2,4-Hexadienal], for which the “Activity, Acid-Production Inhibition, %” value in assay [1] (Table XII, 0.1% of compound) is on record as “++++ (99 to 100)”. Moreover, the “Inhibition of Acid Production” value in assay [2] (0.01 percent) stood at 8%; in assay [2] (0.025 percent), 35%; in assay [2] (0.05 percent), 97%; in assay [2] (0.075 percent) it was 99%; in assay [2] (0.10 percent) it was 100%; in assay [5] (0.01 percent), 31%. Further, the “Inhibition of Acid Production” value in assay [5] (0.025 percent) stood at 92%; in assay [5] (0.05 percent), 99%; in assay [5] (0.075 percent) it was 99%; in assay [5] (0.10 percent), 100%; in assay [6] (0.01 percent), 27%; in assay [6] (0.025 percent), 43%. Moreover, the results for the “Inhibition of Acid Production” value in assay [6] (0.05 percent), in assay [6] (0.075 percent) and in assay [6] (0.10 percent) were 88%, 94% and 98%, respectively. In addition, the Acid Production Inhibition entry in assay [3] was “excellent acid production inhibition”. Further, the Growth Inhibition result in assay [4] was “little or no growth inhibition”.

Regarding `CCCC=CC=O` [2-Hexene-1-al], in assay [7], the “Bacterial Population, Experimental” value is reported as 9 × 10^7 and the “Inhibition (growth)” value is “Insignificant”. In assay [8], the “Bacterial Population, Experimental” value is on record as 8 × 10^8 and the “Inhibition (growth)” value is on record as “Insignificant”. Besides, the inhibition at 0.1 % in assay [1] is 90 to 98%. For the same molecule, the Acid Production Inhibition result in assay [3] is listed as “excellent acid production inhibition”. Moreover, the Growth Inhibition result in assay [4] is given as “little or no growth inhibition”.

Regarding `CCCCCCC=O` [n-Heptaldehyde], the “Bacterial Population, Experimental” value in assay [7] is recorded as 3 × 10^8; in assay [8], 1 × 10^9. Further, the “Inhibition (growth)” value is “Insignificant” in assay [7] and “None” in assay [8]. The inhibition at 0.1 % in assay [1] (setting [9]) was in the range of 75 to 89%. Besides, the Acid Production Inhibition entry in assay [3] was “excellent acid production inhibition”. The Growth Inhibition entry in assay [4] is given as “little or no growth inhibition”.

Turning to `CCCCCC=O` [n-Hexaldehyde], in assay [7], the “Bacterial Population, Experimental” value is on record as 4 × 10^8 and the “Inhibition (growth)” value is “Insignificant”. Further, in assay [8], the “Bacterial Population, Experimental” value is given as 1 × 10^9 and the “Inhibition (growth)” value is “None”. The inhibition at 0.1 % in assay [1] (setting [9]) was in the range of 25 to 74%. The Acid Production Inhibition result in assay [3] was “excellent acid production inhibition”. Also, the Growth Inhibition result in assay [4] is recorded as “little or no growth inhibition”.

Usually inhibition stands for the change of the read-out against control, counted positive when it falls.
